{"source": "paper PMC10725471", "about": "“Chemical modulation of cytosolic BAX homodimer potentiates BAX activation and apoptosis” (Nature Communications, 2023)", "key": {"[1]": {"system": "HCT116 BAX WT, HCT116 BAX P168G and HCT116 BAX E75K cells", "assay": "Caspase 3/7 activation assay", "format": "cell-based, human", "conditions": "all HCT116 BAX cell lines, titration, 6 hrs"}, "[2]": {"system": "HCT116 BAX P168G cells (HCT116 BAX KO reconstituted with BAX P168G, cytosolic dimer)", "assay": "Cell viability (CellTiter-Glo) assay", "conditions": "up to highest concentration of 2 μM, 24 h"}, "[3]": {"system": "HCT116 BAX WT cells (HCT116 BAX KO reconstituted with BAX WT, cytosolic dimer)", "assay": "Cell viability (CellTiter-Glo) assay", "format": "cell-based", "conditions": "Homo sapiens, HCT-116, 24 h"}, "[4]": {"system": "HCT116 BAX E75K cells (HCT116 BAX KO reconstituted with BAX E75K, cytosolic monomer)", "assay": "Cell viability (CellTiter-Glo) assay", "format": "cell-based", "conditions": "Homo sapiens, HCT-116, after 24 h"}, "[5]": {"system": "CALU-6 CRISPR/Cas9 BAX KO cells", "assay": "Caspase 3/7 activation assay", "format": "cell-based, human", "conditions": "CALU-6 BAX KO, 8 hrs"}, "HCT116 BAX P168G cells": {"system": "HCT116 BAX P168G cells", "assay": "Caspase 3/7 activation assay", "format": "cell-based, human"}, "BAX in CALU-6 cells": {"target": "T1, BAX in CALU-6 cells (Homo sapiens, UniProt Q07812)", "T1 construct": "endogenous in cells; host or cells: CALU-6", "assay": "Active BAX immunoprecipitation with 6A7 antibody (BAX conformational change assay)", "format": "cell-based", "conditions": "20 µM, 2 hrs", "protocol": "Cells were harvested and lysed with a 1% CHAPS lysis buffer (150 mM NaCl, 10 mM HEPES, pH 7.4, 1% CHAPS) supplemented with Halt protease inhibitor cocktail (Thermofisher Cat. 1861279). Whole-cell lysates were subjected to immunoprecipitation followed by immunoblotting against total BAX. Briefly, 500–1000 μg total protein in 600 µl was collected and incubated with 12 µl (50% slurry) of pre-equilibrated protein G agarose beads (Santa Cruz Biotechnology) for 30 min at 4 °C on a rotator. The precleared samples were then incubated with 5 µl of 6A7 antibody (Santa Cruz Biotechnology Cat. 23959) overnight at 4 °C. The next day, 20 µl (50% slurry) of pre-equilibrated G agarose beads (Santa Cruz Biotechnology) were added to the samples and incubated for 2 h at 4 °C. The beads were pelleted, washed with the lysis buffer 3 times, and protein eluted by heating the beads at 90 °C for 15 minutes in 1X LDS/DTT loading buffer. The immunoprecipitates were subjected to electrophoresis on 4–12% NuPage gels (Life Technologies). For visualization of proteins using Odyssey Infrared Imaging System (LI-COR Biosciences), membranes were blocked in PBS containing 5% milk powder for 1 hour at room temperature. Primary antibodies were incubated overnight at 4 °C. After washing, membranes were incubated with an IRdye800-conjugated goat anti-rabbit IgG (1:10, 000) or IRDye800- conjugated goat anti-mouse IgG (1:20,000 dilution) secondary antibodies (LI-COR Biosciences). Antibodies were used to detect the following proteins on membrane: BAX (Cell Signaling Cat. 2772) and β-Actin (Sigma Cat. A1978) or β-tubulin (Cell Signaling Cat. 2146)."}, "SUDHL-5 cells": {"system": "SUDHL-5 cells", "assay": "Cell viability (CellTiter-Glo) assay", "format": "cell-based", "conditions": "Homo sapiens, SU-DHL-5; SUDHL-5, 72 hrs"}, "[6]": {"target": "cytosolic BAX (endogenous, human cell lines) (human (endogenous in human cell lines)) (UniProt Q07812)", "assay": "SEC; cytosolic fraction (2.5 mg, lysis without detergent) on Superdex 200 10/300 GL in IBc buffer (10 mM Tris HCl, 1 mM EGTA, 200 mM sucrose, pH 7.5), 4 °C; fractions blotted for BAX; cell lines with BAX centered at 14–14.5 ml (CALU-6, HCT-116, Namalwa, BEAS-2B, IMR90 and other lines of the panel)"}, "[7]": {"target": "human BAX WT in HCT116 BAX KO cells (human) (UniProt Q07812)", "assay": "SEC; cytosolic fraction of HCT116 BAX KO cells reconstituted with BAX WT, P168G or E75K, untreated; Superdex 200 10/300 GL in IBc buffer, 4 °C; fractions blotted for BAX"}, "[8]": {"target": "FITC-BIM SAHB, hydrocarbon-stapled peptide corresponding to the BH3 domain of BIM", "assay": "fluorescence polarisation; direct binding: FITC-BIM SAHB (25 nM) with serial dilutions of full-length BAX; 10-minute time-point"}}, "note": "Structures can show the parent of a compound that is named as a salt.", "data": [{"molecule": "CC1(C)CCC(CN2CCN(c3ccc(C(=O)NS(=O)(=O)c4ccc(NCC5CCOCC5)c([N+](=O)[O-])c4)c(Oc4cnc5[nH]ccc5c4)c3)CC2)=C(c2ccc(Cl)cc2)C1", "note": "[ABT-199, Venetoclax]", "values": [{"measurement": "caspase-3/7 activity (result in words)", "setting": "[1]", "result": "failed to induce caspase-3/7 activity"}]}, {"molecule": "CC1(C)CCC(c2ccc(Cl)cc2)=C(CN2CCN(c3ccc(C(=O)NS(=O)(=O)c4ccc(N[C@H](CCN5CCOCC5)CSc5ccccc5)c(S(=O)(=O)C(F)(F)F)c4)cc3)CC2)C1", "note": "[ABT-263, Navitoclax]", "values": [{"measurement": "cell viability (result in words)", "setting": "[2]", "result": "did not show decreased viability"}, {"measurement": "IC50", "setting": "[3]", "result": 191, "unit": "nM"}, {"measurement": "IC50", "setting": "[4]", "result": 45, "unit": "nM"}, {"measurement": "caspase-3/7 activation (result in words)", "setting": "[5]", "result": "no caspase-3/7 activation was observed"}, {"measurement": "caspase-3/7 activity (result in words)", "setting": "HCT116 BAX P168G cells; titration, 6 hrs", "result": "did not show caspase-3/7 activity"}]}, {"molecule": "O=C(O)c1ccc(-n2c(/C=C/C3CCCC3)nc3ccc(I)cc3c2=O)cc1", "note": "[BDM19.2]", "values": [{"measurement": "6A7 epitope exposure and activation of BAX (result in words)", "setting": "BAX in CALU-6 cells", "result": "none of the analogs"}]}, {"molecule": "O=C(O)c1ccc(-n2c(/C=C/C3CC3)nc3ccc(I)cc3c2=O)cc1", "note": "[BDM19.3]", "values": [{"measurement": "6A7 epitope exposure and activation of BAX (result in words)", "setting": "BAX in CALU-6 cells", "result": "none of the analogs"}]}, {"molecule": "Cc1cccc(/C=C/c2nc3c(c(=O)n2-c2ccc(C(=O)O)cc2)CCCC3)c1", "note": "[BDM19.4]", "values": [{"measurement": "6A7 epitope exposure and activation of BAX (result in words)", "setting": "BAX in CALU-6 cells", "result": "none of the analogs"}]}, {"molecule": "Cc1cccc(/C=C/c2nc3ccc(I)cc3c(=O)n2-c2ccc(C(=O)O)cc2)c1", "note": "[BDM19]", "values": [{"measurement": "caspase-3/7 activation (result in words)", "setting": "[5]", "result": "no caspase-3/7 activation was observed"}, {"measurement": "IC50", "setting": "SUDHL-5 cells", "result": 1360, "unit": "nM"}]}, {"molecule": "COc1cccc2c1C(=O)c1c(O)c3c(c(O)c1C2=O)C[C@@](O)(C(=O)CO)C[C@@H]3O[C@H]1C[C@H](N)[C@H](O)[C@H](C)O1", "note": "[doxorubicin, Doxorubicin hydrochloride]", "values": [{"measurement": "caspase-3/7 activation (result in words)", "setting": "HCT116 BAX P168G cells; various concentrations, 24 hrs", "result": "not responsive"}]}, {"molecule": "cytosolic BAX (endogenous, human cell lines) (from UniProt Q07812 1-192) (natural protein)", "values": [{"measurement": "stoichiometry N", "setting": "[6]", "result": 2}]}, {"molecule": "human BAX WT in HCT116 BAX KO cells (from UniProt Q07812 1-192) (natural protein)", "values": [{"measurement": "stoichiometry N", "setting": "[7]", "result": 2}]}, {"molecule": "recombinant human full-length (aa1–192) wild-type BAX (from UniProt Q07812 1-192) (natural protein)", "values": [{"measurement": "EC75", "setting": "[8]", "result": 125, "unit": "nM"}]}]}
